Earlier results, collected in patent publication US11111250B2 (SHILPA MEDICARE LIMITED, priority 2017, dated 2021).

Assays:
[1] = aqueous media, pH dependence
[2] = long term and accelerated stability studies, stored in the proposed packaging

Substance	solubility [1]	polymorphic stability [2]
Ribociclib mono succinate	soluble in acidic aqueous media, becoming less soluble as pH increases	
Ribociclib mono succinate [Ribociclib mono succinate form A]		stable and not to convert into other polymorphic forms
